Results taken from patent US20070043082A1, “Use of antimuscarinic drugs” (priority 2005, published 2007).
“Also recorded” adds a separate entry of the source.

What was measured:
[1] = system: status epilepticus; experiment: induction of status epilepticus by systemic pilocarpine; format: in vivo, Wistar rats; conditions: pilocarpine 320 mg/Kg intraperitoneal; average
Source text: (§1) Biperiden, together with atropine, is a classic […] and is known to block muscarinic receptors. These drugs are known by their abilities in blocking the cholinergic transmission which is otherwise mediated through muscarinic receptors. For our experiments we used Wistar, adult, male, rats which were maintained under controlled conditions of temperature, light/dark cycles and kept in groups of up to 6 animals in polypropilene boxes with free access to tap water and rat chow pellets. Rats were subject to the intraperitoneal administration of pilocarpine in a dose of 320 mg/Kg for the induction of status epilepticus.
As expected, the systemic administration of pilocarpine lead to a sequence of behavioral alterations such as akinesia, body tremor and/or myoclonic jerks of the head and oro-facial stereotyped movements accompanied by profuse salivation. Status epilepticus, a condition of uninterrupt epileptic seizure, developed on average 19±5 min after the injection of pilocarpine. Three hours after the onset of status epilepticus the animals in the experimental group (n=10) were intraperitoneally injected with the first initial dose of biperiden (8 mg/kg). […]

[2] = species and source not stated; cited from earlier work
[3] = system: spontaneous recurrent epileptic seizures (pilocarpine model of epilepsy); experiment: pilocarpine model of epilepsy in rats: video monitoring of spontaneous epileptic seizures after status epilepticus; format: in vivo, Wistar rats
Source text: The current invention was based on an experimental model of epilepsy in which in rats the induction of a brain lesion is accomplished through the administration of pilocarpine, a cholinergic agonist. According to the original description of this model, approximately 20-30 days after pilocarpine injection in either rats or mice, there is the onset of spontaneous recurrent epileptic seizures (Turski W A, Cavalheiro E A, Schwarz M, Czuczwar S J, Kleinrok Z and Turski L. Limbic seizures produced by pilocarpine in rats: behavioural, electroencephalographic and neuropathological study. Behavioral Brain Research, 9:315-335, 1983; Mello L E A M, Cavalheiro E A, Babb T L, Kupfer W R, Pretorius J K, Tan A M and Finch D M. Circuit mechanisms of seizures in the pilocarpine model of chronic epilepsy: cell loss and mossy fiber sprouting. Epilepsia 34:985-995, 1993). Due to its special features the pilocarpine model is currently one of the 3 most widely used experimental models in the study of epilepsy.
as §1
As expected, the systemic administration of pilocarpine lead to a sequence of behavioral alterations such as akinesia, body tremor and/or myoclonic jerks of the head and oro-facial stereotyped movements accompanied by profuse salivation. Status epilepticus, a condition of uninterrupt epileptic seizure, developed on average 19±5 min after the injection of pilocarpine. Three hours after the onset of status epilepticus the animals in the experimental group (n=10) were intraperitoneally injected with the first initial dose of biperiden (8 mg/kg). This dose represents the concentration needed to provoke memory impairments in rodents, (Roldan G, Bolanos-Badillo E, Gonzales-Sanches H, Quirarte G L and Prado-Alcala R A J W. Selective M1 muscarinic receptor antagonists disrupt memory consolidation of inhibitory avoidance in rats. Neurosci. Lett., 230:93-6, 1997).
For the animals in the control group (n=6), […] after the onset of status epileticus, administration of sterile saline solution (0.9% NaCl), rather than biperiden, was started with a similar protocol.
In the pilocarpine model of epilepsy, a few weeks after the administration of pilocarpine and the induction of status epilepticus, the animals develop spontaneous epileptic seizures which recur for as long as the animal are allowed to live. It is assumed that such epileptic condition adequately mimics some types of epileptic seizures in humans and may closely reflect the sequence of events that take place in post-traumatic epilepsies.
Approximately 15 to 20 days after the induction of status epilepticus, the reported duration of the latent period for the onset of spontaneous seizures, monitoring of the behavioral seizures with a videocamera for approximately 12 hours/week was initiated. Based on our initial hypothesis, that the experimental group (treated with biperiden) would either have a substantial reduction or would show no spontaneous epileptic seizures, and therefore to avoid a false negative result, the sampling rate for video monitoring of these animals was performed for 24 hours/week. Animals were video monitored for approximately 120 days after the induction of status epilepticus. The recorded video tapes were routinely assessed in a 29 inches wide television screen and the seizures observed for each animal were recorded.

Row | Structure (SMILES) | time to development of status epilepticus after injection [1] [min] | half-life [2] [h] | Length of the latent period for the onset of the first recorded spontaneous epileptic seizure, Latency ([3]; biperiden 8 mg/kg i.p. every 8 hours for 10 days, started 3 h after onset of status epilepticus, n=10, mean ± standard deviation, p < 0.03 vs control (Mann-Whitney)) [weeks] | Frequency of spontaneous epileptic seizures, Spontaneous seizures/h ([3]; biperiden 8 mg/kg i.p. every 8 hours for 10 days, n=10, monitored about 120 days, mean ± standard deviation, p < 0.02 vs control (Mann-Whitney)) [seizures/h] | frequency of epileptic seizures in animals that developed seizures (in words) ([3]; compared to animals not treated with biperiden) | mean frequency of spontaneous epileptic seizures of the control group relative to the experimental group ([3]; control (saline) vs experimental (treated with biperiden)) [times] | qualitative or quantitative nature of each individual seizure, difference between the two groups ([3]; experimental (biperiden) vs control) | mean latency of the experimental group relative to the control group ([3]; experimental (biperiden) vs control (saline)) | onset of spontaneous recurrent seizures, i.e., epilepsy (in words) ([3]; prophylactic use after pilocarpine lesion)
1 | CC[C@@H]1C(=O)OC[C@@H]1Cc1cncn1C [pilocarpine] | 19 ± 5 | – | – | – | – | – | – | – | –
2 | OC(CCN1CCCCC1)(c1ccccc1)C1CC2C=CC1C2 (stereo not drawn) [biperiden] | – | 24 ± 1.2 | 6.0±1.1 | 0.0202 ± 0.0047 | significantly lesser frequency | 2 | no differences | two times greater; also recorded: twice that of the control group | significantly retarded or even suppressed
